Measured values from PMC3794980, “Identification of Conserved and HLA Promiscuous DENV3 T-Cell Epitopes” (PLoS Neglected Tropical Diseases, 2013).
Where no end group is shown, it is not given here.

Columns and labels:
Test in all cases: biochemical
Format in all cases: binding
DRB4*0101 = DRB4*0101 (Homo sapiens, UniProt P01903+P13762, G164S)
DRB3*0101 = DRB3*0101 (Homo sapiens, UniProt P01903+P79483)
DRB5*0101 = DRB5*0101 (Homo sapiens, UniProt P01903+Q30154)

Compound | IC50 (DRB4*0101) [µM] | IC50 (DRB3*0101) [µM] | IC50 (DRB5*0101) [µM]
CSCC[C@H](NC(=O)[C@@H](NC(=O)[C@@H](NC(=O)[C@@H](NC(=O)[C@H](CS)NC(=O)CNC(=O)CNC(=O)[C@H](Cc1c[nH]cn1)NC(=O)[C@H](CCC(=O)O)NC(=O)[C@H](CC(C)C)NC(=O)[C@@H](NC(=O)[C@@H](NC(=O)[C@H](CC(=O)O)NC(=O)[C@@H](N)C(C)C)C(C)C)C(C)C)C(C)C)[C@@H](C)O)[C@@H](C)O)C(=O)N[C@@H](C)C(=O)O [Envelope 21-35] | 4.5 |  | 
CC[C@H](C)[C@H](NC(=O)[C@H](CCC(=O)O)NC(=O)[C@H](C)NC(=O)[C@@H](NC(=O)[C@@H](NC(=O)CNC(=O)[C@@H](N)CCC(N)=O)C(C)C)[C@@H](C)O)C(=O)N[C@H](C(=O)N1CCC[C@H]1C(=O)N[C@@H](CCC(N)=O)C(=O)N[C@@H](C)C(=O)N[C@@H](CO)C(=O)N[C@H](C(=O)N[C@H](C(=O)N[C@@H](CCC(=O)O)C(=O)O)[C@@H](C)O)[C@@H](C)O)[C@@H](C)O [Envelope 156-170] | 0.707 |  | 
CC[C@H](C)[C@H](NC(=O)[C@H](C)NC(=O)[C@@H](NC(=O)[C@H](C)NC(=O)[C@H](CC(C)C)NC(=O)[C@H](CCCNC(=N)N)NC(=O)[C@H](CCCCN)NC(=O)[C@@H]1CCCN1C(=O)[C@H](CO)NC(=O)[C@H](CC(=O)O)NC(=O)[C@H](C)NC(=O)[C@H](CCC(N)=O)NC(=O)[C@H](Cc1ccccc1)NC(=O)[C@@H](N)CCCCN)[C@@H](C)O)C(=O)N[C@@H](C)C(=O)O [NS1 33-47] | 0.916 | 0.022 | 
CC[C@H](C)[C@H](N)C(=O)N[C@@H](Cc1ccccc1)C(=O)N[C@@H](CCSC)C(=O)N[C@H](C(=O)N[C@@H](C)C(=O)N[C@H](C(=O)N1CCC[C@H]1C(=O)N1CCC[C@H]1C(=O)NCC(=O)N[C@H](C(=O)N[C@@H](C)C(=O)N[C@@H](CC(=O)O)C(=O)N[C@@H](C)C(=O)N[C@@H](Cc1ccccc1)C(=O)N1CCC[C@H]1C(=O)O)[C@@H](C)O)[C@@H](C)O)[C@@H](C)O [NS3 313-327] |  | 9.44 | 13.9
CC[C@H](C)[C@H](NC(=O)[C@H](CO)NC(=O)[C@@H]1CCCN1C(=O)[C@@H](NC(=O)[C@H](Cc1ccccc1)NC(=O)[C@H](Cc1c[nH]c2ccccc12)NC(=O)[C@@H](NC(=O)[C@@H](NC(=O)[C@H](CCCCN)NC(=O)CNC(=O)[C@H](C)NC(=O)[C@H](Cc1ccccc1)NC(=O)[C@H](CC(=O)O)NC(=O)[C@@H](N)[C@@H](C)O)[C@@H](C)O)C(C)C)C(C)C)C(=O)N[C@@H](CCCCN)C(=O)O [NS3 353-367] |  | 15.7 | 1.22
CC[C@H](C)[C@H](NC(=O)[C@@H](NC(=O)[C@H](CCCCN)NC(=O)[C@@H](N)CCCCN)C(C)C)C(=O)N[C@@H](CCC(N)=O)C(=O)N[C@@H](CC(C)C)C(=O)N[C@@H](CO)C(=O)N[C@@H](CCCNC(=N)N)C(=O)N[C@@H](CCCCN)C(=O)N[C@H](C(=O)N[C@@H](Cc1ccccc1)C(=O)N[C@@H](CC(=O)O)C(=O)N[C@H](C(=O)N[C@@H](CCC(=O)O)C(=O)N[C@@H](Cc1ccc(O)cc1)C(=O)O)[C@@H](C)O)[C@@H](C)O [NS3 381-395] |  | 0.399 | 5.72
CC(C)C[C@H](NC(=O)[C@H](CCCCN)NC(=O)[C@@H](NC(=O)[C@H](CCCCN)NC(=O)[C@H](CCC(N)=O)NC(=O)[C@H](Cc1ccc(O)cc1)NC(=O)[C@H](CCC(=O)O)NC(=O)[C@@H](N)[C@@H](C)O)[C@@H](C)O)C(=O)N[C@@H](CC(N)=O)C(=O)N[C@@H](CC(=O)O)C(=O)N[C@@H](Cc1c[nH]c2ccccc12)C(=O)N[C@@H](CC(=O)O)C(=O)N[C@@H](Cc1ccccc1)C(=O)N[C@H](C(=O)N[C@H](C(=O)O)C(C)C)C(C)C [NS3 393-407] |  | 3.7 | 15.9
CC[C@H](C)[C@H](NC(=O)[C@H](CC(=O)O)NC(=O)[C@@H](N)[C@@H](C)O)C(=O)N[C@@H](CO)C(=O)N[C@@H](CCC(=O)O)C(=O)N[C@@H](CCSC)C(=O)NCC(=O)N[C@@H](C)C(=O)N[C@@H](CC(N)=O)C(=O)N[C@@H](Cc1ccccc1)C(=O)N[C@@H](CCCCN)C(=O)N[C@@H](C)C(=O)N[C@@H](CC(=O)O)C(=O)N[C@@H](CCCNC(=N)N)C(=O)N[C@H](C(=O)O)C(C)C [NS3 409-423] |  | 0.168 | 0.05
CC[C@H](C)[C@H](NC(=O)[C@@H](NC(=O)[C@H](CCCNC(=N)N)NC(=O)[C@H](CC(=O)O)NC(=O)[C@H](C)NC(=O)[C@H](CCCCN)NC(=O)[C@H](Cc1ccccc1)NC(=O)[C@H](CC(N)=O)NC(=O)[C@H](C)NC(=O)CNC(=O)[C@H](CCSC)NC(=O)[C@@H](N)CCC(=O)O)C(C)C)C(=O)N[C@@H](CC(=O)O)C(=O)N1CCC[C@H]1C(=O)N[C@@H](CCCNC(=N)N)C(=O)O [NS3 413-427] |  | 0.096 | 1.2
CSCC[C@H](NC(=O)CNC(=O)CNC(=O)[C@H](Cc1c[nH]cn1)NC(=O)[C@H](CCCCN)NC(=O)[C@H](CCCNC(=N)N)NC(=O)[C@H](CCC(N)=O)NC(=O)[C@H](CC(C)C)NC(=O)[C@H](CCCNC(=N)N)NC(=O)[C@H](CCC(=O)O)NC(=O)[C@@H](N)CC(C)C)C(=O)N[C@@H](CC(C)C)C(=O)N[C@H](C(=O)N[C@@H](CCCNC(=N)N)C(=O)N[C@@H](CC(N)=O)C(=O)N1CCC[C@H]1C(=O)N[C@@H](CC(C)C)C(=O)O)C(C)C [NS5 193-209] |  | 12 | 1.2
C[C@H](NC(=O)[C@H](Cc1c[nH]c2ccccc12)NC(=O)[C@@H](NC(=O)[C@H](CCCCN)NC(=O)[C@H](Cc1ccc(O)cc1)NC(=O)[C@@H]1CCCN1C(=O)[C@H](CC(N)=O)NC(=O)[C@H](CCC(=O)O)NC(=O)[C@H](CC(=O)O)NC(=O)[C@H](CC(=O)O)NC(=O)[C@H](Cc1ccc(O)cc1)NC(=O)[C@H](Cc1c[nH]cn1)NC(=O)[C@H](Cc1c[nH]c2ccccc12)NC(=O)[C@@H](N)[C@@H](C)O)[C@@H](C)O)C(=O)N[C@@H](Cc1ccc(O)cc1)C(=O)N[C@@H](Cc1c[nH]cn1)C(=O)NCC(=O)O [NS5 290-306] | 15.6 |  | 
CC(C)[C@H](NC(=O)[C@H](CCC(=O)O)NC(=O)[C@H](Cc1ccc(O)cc1)NC(=O)[C@H](CO)NC(=O)CNC(=O)[C@H](Cc1c[nH]cn1)NC(=O)[C@H](Cc1ccc(O)cc1)NC(=O)[C@H](C)NC(=O)[C@H](Cc1c[nH]c2ccccc12)NC(=O)[C@@H](NC(=O)[C@H](CCCCN)NC(=O)[C@H](Cc1ccc(O)cc1)NC(=O)[C@@H]1CCCN1C(=O)[C@H](CC(N)=O)NC(=O)[C@H](CCC(=O)O)NC(=O)[C@@H](N)CC(=O)O)[C@@H](C)O)C(=O)N[C@@H](CCCCN)C(=O)O [NS5 295-311] |  | 0.98 | 5.29
CC(C)[C@H](NC(=O)[C@H](CCC(=O)O)NC(=O)[C@H](Cc1ccc(O)cc1)NC(=O)[C@H](CO)NC(=O)CNC(=O)[C@H](Cc1c[nH]cn1)NC(=O)[C@H](Cc1ccc(O)cc1)NC(=O)[C@H](C)NC(=O)[C@H](Cc1c[nH]c2ccccc12)NC(=O)[C@@H](N)[C@@H](C)O)C(=O)N[C@@H](CCCCN)C(=O)N[C@@H](C)C(=O)N[C@H](C(=O)NCC(=O)N[C@@H](CO)C(=O)N[C@@H](C)C(=O)O)[C@@H](C)O [NS5 301-316] |  | 0.536 | 1.83
CC(C)C[C@H](NC(=O)CNC(=O)[C@H](CCC(=O)O)NC(=O)CNC(=O)[C@H](CCC(=O)O)NC(=O)[C@@H](NC(=O)CNC(=O)[C@H](CO)NC(=O)[C@H](Cc1ccc(O)cc1)NC(=O)[C@H](CO)NC(=O)[C@H](CC(N)=O)NC(=O)[C@H](CCC(=O)O)NC(=O)[C@H](CCCNC(=N)N)NC(=O)[C@H](CO)NC(=O)[C@H](Cc1ccccc1)NC(=O)[C@H](Cc1c[nH]c2ccccc12)NC(=O)[C@@H](N)Cc1c[nH]cn1)C(C)C)C(=O)O [NS5 495-511] |  | 1.16 | 0.723
CC[C@H](C)[C@H](NC(=O)[C@H](CCCCN)NC(=O)[C@H](CCCCN)NC(=O)[C@H](CCC(=O)O)NC(=O)[C@H](CC(C)C)NC(=O)[C@@H]1CCCN1C(=O)[C@H](Cc1c[nH]cn1)NC(=O)[C@@H]1CCCN1C(=O)[C@H](CC(N)=O)NC(=O)[C@H](CCC(=O)O)NC(=O)[C@H](CC(C)C)NC(=O)[C@H](CC(=O)O)NC(=O)[C@H](C)NC(=O)[C@@H](N)CCCCN)C(=O)N[C@H](C(=O)N[C@@H](CCC(N)=O)C(=O)N[C@@H](Cc1c[nH]c2ccccc12)C(=O)O)[C@@H](C)O [NS5 630-646] |  | 13.7 | 15.5
CC[C@H](C)[C@H](NC(=O)[C@H](CCCCN)NC(=O)[C@H](CCCCN)NC(=O)[C@H](CCC(=O)O)NC(=O)[C@H](CC(C)C)NC(=O)[C@@H]1CCCN1C(=O)[C@H](Cc1c[nH]cn1)NC(=O)[C@@H]1CCCN1)C(=O)N[C@H](C(=O)N[C@@H](CCC(N)=O)C(=O)N[C@@H](Cc1c[nH]c2ccccc12)C(=O)N[C@@H](CC(C)C)C(=O)N[C@@H](CCC(=O)O)C(=O)N[C@H](C(=O)N[C@@H](CCCCN)C(=O)NCC(=O)N[C@H](C(=O)O)C(C)C)[C@@H](C)O)[C@@H](C)O [NS5 636-652] | 3.83 |  | 
CC[C@H](C)[C@H](NC(=O)[C@H](C)NC(=O)[C@H](CCSC)NC(=O)[C@H](CCCNC(=N)N)NC(=O)[C@H](CCCCN)NC(=O)[C@H](CC(C)C)NC(=O)[C@H](CCCNC(=N)N)NC(=O)[C@H](CCC(=O)O)NC(=O)[C@@H](N)C(C)C)C(=O)N[C@@H](CO)C(=O)NCC(=O)N[C@@H](CC(=O)O)C(=O)N[C@@H](CC(=O)O)C(=O)N[C@@H](CS)C(=O)N[C@H](C(=O)N[C@H](C(=O)N[C@@H](CCCCN)C(=O)O)C(C)C)C(C)C [NS5 652-668] | 0.618 |  | 
CC[C@H](C)[C@H](NC(=O)[C@H](CC(C)C)NC(=O)[C@H](CCC(=O)O)NC(=O)[C@H](Cc1c[nH]cn1)NC(=O)[C@H](Cc1ccccc1)NC(=O)[C@H](Cc1c[nH]cn1)NC(=O)[C@H](Cc1c[nH]cn1)NC(=O)[C@H](CO)NC(=O)[C@H](CS)NC(=O)[C@H](Cc1ccccc1)NC(=O)[C@@H]1CCCN1C(=O)[C@@H](NC(=O)[C@H](CCC(N)=O)NC(=O)[C@H](CCC(N)=O)NC(=O)[C@H](Cc1c[nH]c2ccccc12)NC(=O)[C@@H](N)CC(=O)O)C(C)C)C(=O)N[C@@H](CCSC)C(=O)O [NS5 702-718] |  | 4.74 | 3.22
EITPQASTTEAILPE [Envelope 161-175] | 16.6 |  | 
LPWTSGATTETPTWN [Envelope 216-230] | 11.6 |  | 
